# Reference: patent US12151999B2, “Small molecule compounds having naphthylamine structure and application thereof” (Hangzhou PhecdaMed Co., Ltd., priority 2021, dated 2024)
# Test system: HEK293Tmtkeima cells
# Assay: Functional test of mitophagy inducer (mtKeima imaging, with or without CCCP-induced mitochondrial damage)
# Type: cell-based, Human
# Settings: HEK293Tmtkeima cells, 5 uM or 10 uM CCCP to induce mitochondrial damage; number of cells in which damaged mitophagy occurs/number of all cells
# Protocol: Group 1: Human embryonic kidney transformed cells HEK293Tmtkeima cells were treated with 0 μM, 1.25 μM, 2.5 μM, 5 μM and 10 μM CCCP respectively, and seeded in a 96-well black ELISA PLATE at 1.5*10^5 cells/ml, 100 μL per well. Compound I-2 was added after 25 hours, and 3 replicates were set. At 37° C., under 5% CO2 incubation conditions, photographs were taken every few hours with biotek cytation 5 for a total of 20 hours, with the bright field as the focusing channel, and 9 images were taken per hole, and the images were processed using the instrument software.
# Group 2: Human embryonic kidney transformed cells HEK293Tmtkeima cells were seeded in a 96-well black ELISA PLATE at […], 100 μL per well; compounds I-1˜I-44 and UMI-77 were added after 25 hours, set up 3 replicates; under 37° C., 5% CO2 culture conditions, use biotek every few hours Cytation 5 was used to take photos, a total of 20 hours of shooting. In another group of cells under the same conditions, human embryonic kidney-transformed cells HEK293Tmtkeima cells were seeded in a 96-well black enzyme plate at 1.5*10^5 cells/ml, 100 μl per well; after 24 hours, 5 uM or 10 uM CCCP (Carbonyl cyanide) was first added 3-chlorophenylhydrazone) to induce mitochondrial damage, then add I-1˜I-44, UMI-77 1 hour later, set up 3 repetitions; under 37° C., 5% CO2 culture conditions, pictures were taken every few hours with biotek cytation 5, photographs were taken for 20 hours. Another group of human embryonic kidney transformed cells HEK293Tmtkeima cells was seeded at 1.5*10^5 cells/ml in 96-well black ELISA PLATE at 100 μl per well under the same conditions, 24 hours later 5 uM or 10 uM CCCP (Carbonyl cyanide 3-chlorophenylhydrazone) was first added to induce mitochondrial damage, after 1 hour then add I-1 to I-44, UMI-77 and set up 3 replicates. At 37° C., under 5% CO2 incubation conditions, pictures were taken every few hours with biotek cytation 5, photographs were taken for 20 hours, with the bright field as the focusing channel for both groups, and 9 images were taken per hole, and the images were processed using the instrument software.
row,Compound,The ability of selection to induce autophagy in damaged mitochondria
1,O=C(O)C[S+]([O-])c1cc(N(C2CC2)S(=O)(=O)c2ccc(Br)cc2)c2ccccc2c1O (stereo not shown) [Compound I-3],++ (moderate ability to selectively induce autophagy in damaged mitochondria (number of cells in which damaged mitophagy occurs/number of all cells in the range of 0.2 to 0.3))
2,O=C(O)C[S+]([O-])c1cc(N(C2COC2)S(=O)(=O)c2ccc(Br)cc2)c2ccccc2c1O (stereo not shown) [Compound I-4],+ (weak ability to selectively induce autophagy in damaged mitochondria (number of cells in which damaged mitophagy occurs/number of all cells in the range of 0.1 to 0.2))
3,NC(=O)C[S+]([O-])c1cc(NS(=O)(=O)c2ccc(Br)cc2)c2ccccc2c1O (stereo not shown) [Compound I-5],+ (weak ability to selectively induce autophagy in damaged mitochondria (number of cells in which damaged mitophagy occurs/number of all cells in the range of 0.1 to 0.2))
4,NC(=S)C[S+]([O-])c1cc(NS(=O)(=O)c2ccc(Br)cc2)c2ccccc2c1O (stereo not shown) [Compound I-6],+ (weak ability to selectively induce autophagy in damaged mitochondria (number of cells in which damaged mitophagy occurs/number of all cells in the range of 0.1 to 0.2))
5,O=S(=O)(Cc1nn[nH]n1)c1cc(NS(=O)(=O)c2ccc(Br)cc2)c2ccccc2c1O [Compound I-7-2],+ (weak ability to selectively induce autophagy in damaged mitochondria (number of cells in which damaged mitophagy occurs/number of all cells in the range of 0.1 to 0.2))
6,O=S(=O)(Nc1cc([S+]([O-])Cc2nnc[nH]2)c(O)c2ccccc12)c1ccc(Br)cc1 (stereo not shown) [Compound I-8],+++ (strong ability to selectively induce autophagy in damaged mitochondria (number of cells in which damaged mitophagy occurs/number of all cells >0.30))
7,O=C(O)C[S+]([O-])c1cc(NS(=O)(=O)c2cccs2)c2ccccc2c1O (stereo not shown) [Compound I-13-1],+++ (strong ability to selectively induce autophagy in damaged mitochondria (number of cells in which damaged mitophagy occurs/number of all cells >0.30))
8,O=C(O)CS(=O)(=O)c1cc(NS(=O)(=O)c2cccs2)c2ccccc2c1O [Compound I-13-2],++ (moderate ability to selectively induce autophagy in damaged mitochondria (number of cells in which damaged mitophagy occurs/number of all cells in the range of 0.2 to 0.3))
9,O=C(O)C[S+]([O-])c1cc(NS(=O)(=O)c2ccc(C(F)(F)F)cc2)c2ccccc2c1O (stereo not shown) [Compound I-14-1],++ (moderate ability to selectively induce autophagy in damaged mitochondria (number of cells in which damaged mitophagy occurs/number of all cells in the range of 0.2 to 0.3))
10,O=C(O)CS(=O)(=O)c1cc(NS(=O)(=O)c2ccc(C(F)(F)F)cc2)c2ccccc2c1O [Compound I-14-2],++ (moderate ability to selectively induce autophagy in damaged mitochondria (number of cells in which damaged mitophagy occurs/number of all cells in the range of 0.2 to 0.3))
11,COc1ccc(S(=O)(=O)Nc2cc([S+]([O-])CC(=O)O)c(O)c3ccccc23)cc1 (stereo not shown) [Compound I-15-1],+ (weak ability to selectively induce autophagy in damaged mitochondria (number of cells in which damaged mitophagy occurs/number of all cells in the range of 0.1 to 0.2))
12,O=C(O)C[S+]([O-])c1cc(NS(=O)(=O)c2ccc(Oc3ccccc3)cc2)c2ccccc2c1O (stereo not shown) [Compound I-16-1],++ (moderate ability to selectively induce autophagy in damaged mitochondria (number of cells in which damaged mitophagy occurs/number of all cells in the range of 0.2 to 0.3))
13,O=C(O)C[S+]([O-])c1cc(NS(=O)(=O)c2ccc(Cl)c(Cl)c2)c2ccccc2c1O (stereo not shown) [Compound I-17-1],+++ (strong ability to selectively induce autophagy in damaged mitochondria (number of cells in which damaged mitophagy occurs/number of all cells >0.30))
14,O=C(O)C[S+]([O-])c1cc(NS(=O)(=O)c2ccc(N3CCCC3)cc2)c2ccccc2c1O (stereo not shown) [Compound I-18-1],+ (weak ability to selectively induce autophagy in damaged mitochondria (number of cells in which damaged mitophagy occurs/number of all cells in the range of 0.1 to 0.2))
15,O=C(O)C[S+]([O-])c1cc(NS(=O)(=O)c2cc3ccccc3s2)c2ccccc2c1O (stereo not shown) [Compound I-19-1],++ (moderate ability to selectively induce autophagy in damaged mitochondria (number of cells in which damaged mitophagy occurs/number of all cells in the range of 0.2 to 0.3))
16,O=C(O)C[S+]([O-])c1cc(NS(=O)(=O)c2ccc(C3CC3)cc2)c2ccccc2c1O (stereo not shown) [Compound I-20-1],++ (moderate ability to selectively induce autophagy in damaged mitochondria (number of cells in which damaged mitophagy occurs/number of all cells in the range of 0.2 to 0.3))
17,O=C(O)C[S+]([O-])c1cc(NS(=O)(=O)c2ccc(OC(F)(F)F)cc2)c2ccccc2c1O (stereo not shown) [Compound I-21-1],+++ (strong ability to selectively induce autophagy in damaged mitochondria (number of cells in which damaged mitophagy occurs/number of all cells >0.30))
18,O=C(O)C[S+]([O-])c1cc(NS(=O)(=O)c2ccc([N+](=O)[O-])cc2)c2ccccc2c1O (stereo not shown) [Compound I-22-1],+ (weak ability to selectively induce autophagy in damaged mitochondria (number of cells in which damaged mitophagy occurs/number of all cells in the range of 0.1 to 0.2))
19,O=C(O)CS(=O)(=O)c1cc(NS(=O)(=O)c2cccc(-c3ccccc3)c2)c2ccccc2c1O [Compound I-23-2],++ (moderate ability to selectively induce autophagy in damaged mitochondria (number of cells in which damaged mitophagy occurs/number of all cells in the range of 0.2 to 0.3))
20,O=C(O)C[S+]([O-])c1cc(NS(=O)(=O)c2cccc(F)c2)c2ccccc2c1O (stereo not shown) [Compound I-24-1],+ (weak ability to selectively induce autophagy in damaged mitochondria (number of cells in which damaged mitophagy occurs/number of all cells in the range of 0.1 to 0.2))
21,CN=S(=O)(Nc1cc([S+]([O-])CC(=O)O)c(O)c2ccccc12)c1ccc(Br)cc1 (stereo not shown) [Compound I-25-1],+++ (strong ability to selectively induce autophagy in damaged mitochondria (number of cells in which damaged mitophagy occurs/number of all cells >0.30))
22,CN=S(=O)(c1ccc(Br)cc1)N(C)c1cc([S+]([O-])CC(=O)O)c(O)c2ccccc12 (stereo not shown) [Compound I-26],++ (moderate ability to selectively induce autophagy in damaged mitochondria (number of cells in which damaged mitophagy occurs/number of all cells in the range of 0.2 to 0.3))
23,O=C(O)C[S+]([O-])c1cc(N2CCN=S2(=O)c2ccc(Br)cc2)c2ccccc2c1O (stereo not shown) [Compound I-27],++ (moderate ability to selectively induce autophagy in damaged mitochondria (number of cells in which damaged mitophagy occurs/number of all cells in the range of 0.2 to 0.3))
24,O=C(O)C[S+]([O-])c1cc(N2CCCN=S2(=O)c2ccc(Br)cc2)c2ccccc2c1O (stereo not shown) [Compound I-28],+ (weak ability to selectively induce autophagy in damaged mitochondria (number of cells in which damaged mitophagy occurs/number of all cells in the range of 0.1 to 0.2))
25,O=C(O)C[S+]([O-])c1cc(NS(=O)(=O)c2ccc(Br)cc2)c2cc(Br)ccc2c1O (stereo not shown) [Compound I-29],+++ (strong ability to selectively induce autophagy in damaged mitochondria (number of cells in which damaged mitophagy occurs/number of all cells >0.30))
26,N#Cc1ccc2c(O)c([S+]([O-])CC(=O)O)cc(NS(=O)(=O)c3ccc(Br)cc3)c2c1 (stereo not shown) [Compound I-31],+ (weak ability to selectively induce autophagy in damaged mitochondria (number of cells in which damaged mitophagy occurs/number of all cells in the range of 0.1 to 0.2))
27,COP(=O)(Nc1cc([S+]([O-])CC(=O)O)c(O)c2ccccc12)c1ccc(Br)cc1 (stereo not shown) [Compound I-33],++ (moderate ability to selectively induce autophagy in damaged mitochondria (number of cells in which damaged mitophagy occurs/number of all cells in the range of 0.2 to 0.3))
28,O=C(O)C[S+]([O-])c1cc(NC(=O)c2cccc(Br)c2)c2ccccc2c1O (stereo not shown) [Compound I-35-1],+ (weak ability to selectively induce autophagy in damaged mitochondria (number of cells in which damaged mitophagy occurs/number of all cells in the range of 0.1 to 0.2))
